In patent US20100267561A1, “HERBICIDAL PYRIDAZINONE DERIVATIVES” (priority 2007, published 2010):

Key:
Experiment in all cases: Test B pre-/postemergence plant response
Format in all cases: in vivo
[1] = system: blackgrass (Alopecurus myosuroides); settings: for Blackgrass plant response rating: 8 g ai/ha
Summary of the method: (§1)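 Preemergence and postemergence (plants 2-18 cm, 1- to 4-leaf stage) applications used test chemicals in a non-phytotoxic solvent with surfactant. Plants were held in a greenhouse 13 to 15 days, then rated visually against controls on a 0-100 scale (0 no effect, 100 complete control).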

[2] = system: catchweed bedstraw (Galium aparine); settings: Preemergence
Summary of the method: as §1

[3] = system: common (oilseed) sunflower (Helianthus annuus); settings: Preemergence
Summary of the method: as §1

corn (Zea mays) = settings: for Corn plant response rating: 8 g ai/ha
Summary of the method: as §1

[4] = system: downy bromegrass (Bromus tectorum); settings: for Bromegrass, Downy plant response rating: 8 g ai/ha
Summary of the method: as §1

[5] = system: eastern black (E.B.) nightshade (Solanum ptycanthum); settings: Preemergence
Summary of the method: as §1

[6] = system: giant foxtail (Setaria faberii); settings: for Foxtail, Giant plant response rating: 8 g ai/ha
Summary of the method: as §1

[7] = system: green foxtail (Setaria viridis); settings: for Foxtail, Green plant response rating: 8 g ai/ha
Summary of the method: as §1

[8] = system: johnsongrass (Sorghum halepense); settings: for Johnsongrass plant response rating: 8 g ai/ha
Summary of the method: as §1

kochia (Kochia scoparia) = settings: for Kochia plant response rating: 8 g ai/ha
Summary of the method: as §1

[9] = system: morningglory (Ipomoea coccinea); settings: for Morningglory plant response rating: 8 g ai/ha
Summary of the method: as §1

[10] = system: pigweed (Amaranthus retroflexus); settings: for Pigweed plant response rating: 8 g ai/ha
Summary of the method: as §1

[11] = system: surinam grass (Brachiaria decumbens); settings: for Surinam Grass plant response rating: 8 g ai/ha
Summary of the method: as §1

[12] = system: woolly cupgrass (Eriochloa villosa); settings: for Cupgrass, Woolly plant response rating: 8 g ai/ha
Summary of the method: as §1

[13] = Postemergence, 16 g ai/ha, scale 0 to 100
[14] = Postemergence, 31 g ai/ha, scale 0 to 100, 0 no effect, 100 complete control
[15] = Postemergence, 62 g ai/ha, scale 0 to 100, 0 no effect, 100 complete control
[16] = Preemergence, 31 g ai/ha, 0 to 100 scale, 0 no effect, 100 complete control
[17] = Preemergence, 62 g ai/ha, scale 0 to 100
[18] = 16 g ai/ha, scale 0 to 100 (0 no effect, 100 complete control)
[19] = 31 g ai/ha, 0 to 100 scale, 0 no effect, 100 complete control
[20] = Preemergence, 16 g ai/ha, scale 0 to 100 (0 no effect, 100 complete control)

## Cc1cc(-c2ccc(Cl)cc2)nn1-c1c(OC(=O)c2ccccc2Cl)cnn(C)c1=O [Compound 38]
[1]; postemergence, 0-100 scale
  Blackgrass plant response rating: 0
[1]; [13]
  Plant response rating, Blackgrass: 40
[1]; [14]
  Plant response rating, Blackgrass: 80
[1]; [15]
  Plant response rating, Blackgrass: 98
[1]; [16]
  Plant response rating, Blackgrass: 90
[1]; [17]
  Plant response rating, Blackgrass: 100
[1]; Preemergence, scale 0 to 100
  Blackgrass plant response rating: 90
[2]; [18]
  Plant response rating, Galium: 0
[2]; [19]
  Plant response rating, Galium: 0
[2]; 62 g ai/ha, scale 0 to 100
  Plant response rating, Galium: 0
[2]; 8 g ai/ha, scale 0 to 100
  Galium plant response rating: 0
[3]; [18]
  Plant response rating, Sunflower: 0
[3]; [19]
  Plant response rating, Sunflower: 0
[3]; 62 g ai/ha, scale 0 to 100
  Plant response rating, Sunflower: 0
[3]; 8 g ai/ha, scale 0 to 100
  Sunflower plant response rating: 0
Corn (Zea mays); postemergence, 0-100 scale
  Corn plant response rating: 90
Corn (Zea mays); [13]
  Plant response rating, Corn: 95
Corn (Zea mays); [14]
  Plant response rating, Corn: 100
Corn (Zea mays); [15]
  Plant response rating, Corn: 100
Corn (Zea mays); [20]
  Plant response rating, Corn: 50
Corn (Zea mays); [16]
  Plant response rating, Corn: 75
Corn (Zea mays); [17]
  Plant response rating, Corn: 95
Corn (Zea mays); Preemergence, scale 0 to 100
  Corn plant response rating: 45
[4]; postemergence, 0-100 scale
  Bromegrass, Downy plant response rating: 30
[4]; [13]
  Plant response rating, Bromegrass, Downy: 45
[4]; [14]
  Plant response rating, Bromegrass, Downy: 50
[4]; [15]
  Plant response rating, Bromegrass, Downy: 60
[4]; [20]
  Plant response rating, Bromegrass, Downy: 55
[4]; [16]
  Plant response rating, Bromegrass, Downy: 60
[4]; [17]
  Plant response rating, Bromegrass, Downy: 90
[4]; Preemergence, scale 0 to 100
  Bromegrass, Downy plant response rating: 55
[5]; [18]
  Plant response rating, Nightshade, E. B.: 0
[5]; [19]
  Plant response rating, Nightshade, E. B.: 0
[5]; 62 g ai/ha, scale 0 to 100
  Plant response rating, Nightshade, E. B.: 0
[5]; 8 g ai/ha, scale 0 to 100
  Nightshade, E. B. plant response rating: 0
[6]; postemergence, 0-100 scale
  Foxtail, Giant plant response rating: 0
[6]; [13]
  Plant response rating, Foxtail, Giant: 20
[6]; [14]
  Plant response rating, Foxtail, Giant: 50
[6]; [15]
  Plant response rating, Foxtail, Giant: 100
[6]; [20]
  Plant response rating, Foxtail, Giant: 98
[6]; [16]
  Plant response rating, Foxtail, Giant: 100
[6]; [17]
  Plant response rating, Foxtail, Giant: 100
[6]; Preemergence, scale 0 to 100
  Foxtail, Giant plant response rating: 45
[7]; postemergence, 0-100 scale
  Foxtail, Green plant response rating: 30
[7]; [13]
  Plant response rating, Foxtail, Green: 75
[7]; [14]
  Plant response rating, Foxtail, Green: 80
[7]; [15]
  Plant response rating, Foxtail, Green: 98
[7]; [20]
  Plant response rating, Foxtail, Green: 100
[7]; [16]
  Plant response rating, Foxtail, Green: 100
[7]; [17]
  Plant response rating, Foxtail, Green: 100
[7]; Preemergence, scale 0 to 100
  Foxtail, Green plant response rating: 30
[8]; postemergence, 0-100 scale
  Johnsongrass plant response rating: 60
[8]; [13]
  Plant response rating, Johnsongrass: 65
[8]; [14]
  Plant response rating, Johnsongrass: 90
[8]; [15]
  Plant response rating, Johnsongrass: 100
[8]; [16]
  Plant response rating, Johnsongrass: 70
[8]; [17]
  Plant response rating, Johnsongrass: 80
[8]; Preemergence, scale 0 to 100
  Johnsongrass plant response rating: 0
Kochia (Kochia scoparia); postemergence, 0-100 scale
  Kochia plant response rating: 0
Kochia (Kochia scoparia); [13]
  Plant response rating, Kochia: 0
Kochia (Kochia scoparia); [14]
  Plant response rating, Kochia: 0
Kochia (Kochia scoparia); [15]
  Plant response rating, Kochia: 0
Kochia (Kochia scoparia); [20]
  Plant response rating, Kochia: 0
Kochia (Kochia scoparia); Preemergence, scale 0 to 100
  Kochia plant response rating: 0
[9]; postemergence, 0-100 scale
  Morningglory plant response rating: 0
[9]; [13]
  Plant response rating, Morningglory: 0
[9]; [14]
  Plant response rating, Morningglory: 0
[9]; [15]
  Plant response rating, Morningglory: 0
[9]; [20]
  Plant response rating, Morningglory: 0
[9]; [16]
  Plant response rating, Morningglory: 0
[9]; [17]
  Plant response rating, Morningglory: 0
[9]; Preemergence, scale 0 to 100
  Morningglory plant response rating: 0
[10]; postemergence, 0-100 scale
  Pigweed plant response rating: 0
[10]; [13]
  Plant response rating, Pigweed: 0
[10]; [14]
  Plant response rating, Pigweed: 0
[10]; [15]
  Plant response rating, Pigweed: 0
[10]; [20]
  Plant response rating, Pigweed: 0
[10]; [16]
  Plant response rating, Pigweed: 0
[10]; [17]
  Plant response rating, Pigweed: 0
[10]; Preemergence, scale 0 to 100
  Pigweed plant response rating: 0
[11]; postemergence, 0-100 scale
  Surinam Grass plant response rating: 90
[11]; [13]
  Plant response rating, Surinam Grass: 90
[11]; [15]
  Plant response rating, Surinam Grass: 100
[11]; [20]
  Plant response rating, Surinam Grass: 90
[11]; [16]
  Plant response rating, Surinam Grass: 100
[11]; [17]
  Plant response rating, Surinam Grass: 100
[11]; Preemergence, scale 0 to 100
  Surinam Grass plant response rating: 90
[12]; postemergence, 0-100 scale
  Cupgrass, Woolly plant response rating: 70
[12]; [13]
  Plant response rating, Cupgrass, Woolly: 98
[12]; [14]
  Plant response rating, Cupgrass, Woolly: 100
[12]; [15]
  Plant response rating, Cupgrass, Woolly: 100
[12]; [20]
  Plant response rating, Cupgrass, Woolly: 50
[12]; [16]
  Plant response rating, Cupgrass, Woolly: 90
[12]; [17]
  Plant response rating, Cupgrass, Woolly: 100
[12]; Preemergence, scale 0 to 100
  Cupgrass, Woolly plant response rating: 0
